Measurements: patent US20220088103A1, “PEANUT STEM AND LEAF EXTRACT AND PREPARATION METHOD AND USE THEREOF” (INSTITUTE OF FOOD SCIENCE AND TECHNOLOGY, CHINESE ACADEMY …, priority 2019, published 2022)

Tested on: sleep of mice
Test: Effect on 24-hour sleep of mice (EEG and electromyograph recording)
Assay type: in vivo, Male Bal b/c mice
Conditions: standard substances dosed according to their identified contents in the extract; intragastric, D1 to D14; FIG. 3
Description: The BAL b/c mice is used as a model in the present invention, and the electrophysiological technology is adopted, wherein electrodes are implanted in the brain of the mice, and the brain wave changes of mice after drug administration is real time 24-hour monitored for 14 days, thereby determining that the functional active substances in the peanut stem and leaf extract provided by the present invention have a significant sleep promoting function.
Experiment of the effect of the peanut stem and leaf extract prepared in Example 1 on sleep of mice
The peanut stem and leaf extract prepared according to the method of Example 1 was used as an experimental drug, and the standard drugs were administered to the mice according to the identified contents of the substances such as naringenin-4,7′-dimethyl ether.
The experiment was divided into a control group, extract groups (three groups of low, medium and high doses), a positive control group and a functional factor group (four functional active substances). Male Bal b/c mice were used, 6 mice for each group.
The mice were anesthetized at abdominal cavity with chloral hydrate (4%) at 0.10 mL/10 g. After the pain reflex disappeared, the mice were fixed on a mouse brain stereotactic adapter, and the hair on the head of the mice was cut off and 75% alcohol was used to disinfect the skin, the skin was cut along the midline of the skull, and the subcutaneous tissue was separated to fully expose the skull. […] The electroencephalo-graph (EEG) electrodes were fixed on the skull with tissue glue and dental cement successively, and the EEG electrode was connected to a screw (fixed in the hole drilled on the skull) to touch the cerebral dura mater by a silver wire to record cortical EEG activity. The two silver wires connected to the myoelectric electrodes were inserted into the muscles on both sides of the neck of the mouse to record the myoelectric activity. The electrode base was then fixed to the skull with tissue glue and dental cement. Mice were injected with penicillin after surgery (measuring 80,000 units/day for three consecutive days). The mice were raised separately in a shielding box with constant temperature, constant humidity, sound insulation and electrostatic shielding function during the recovery period after surgery. The cables for recording EEG and myoelectricity were connected to the electrodes on the head of the mouse on the second day after surgery, and the mice were allowed to adapt for 7 days. […] The EEG and electromyograph of mice that recovered and adapted to the experimental environment began to be recorded from 8:00 in the morning for 24 hours, and this day was recorded as D0. […] The EEG and electromyograph were recorded on the D7 and D14, and the brain tissue was taken after gavage at 8:00 in the morning on D15.

| SMILES | sleep time of mice (24-hour sleep) |
| --- | --- |
| C=CC(C)(O)CCC=C(C)C (stereo not shown) [linalool] | significantly improve |
| COc1cc(/C=C/C(=O)O)ccc1O [ferulic acid] | significantly improve |
| COc1ccc(C2CC(=O)c3c(O)cc(OC)cc3O2)cc1 (stereo not shown) [naringenin-4,7′-dimethyl ether] | significantly improve |
| COc1cc(O)ccc1C(=O)/C=C/c1ccc(O)cc1 [2′-O-methylisoliquiritigenin] | significantly improve |
